SMILES strings stand for the structures. Structures can show the parent of a compound that is named as a salt.

For orientation: EC50 means the concentration needed to bring the measured effect to its halfway point. Lower therefore signals a more potent agent.

For the assay, the target named is human GPR119 (Homo sapiens (Human), UniProt Q8TDV5). The assay can be described thus: AlphaScreen cAMP assay in Min-6/hGPR119 cells (GPR119 activation, intracellular cAMP). The class given is cell-based. Particulars: MIN6 cells stably transfected with human GPR119; 45 minutes' incubation at RT; AlphaScreen cAMP Assay Kit. Here is the method: The compounds of formula I according to the invention are GPR119 agonists. The effect of the compounds on the activation of GPR119 and on the stimulation of intracellular cAMP concentration is determined using the AlphaScreen cAMP Assay Kit (Cat. No. #6760625R) made by PerkinElmer.
human GPR119, sequence (Q8TDV5 whole entry): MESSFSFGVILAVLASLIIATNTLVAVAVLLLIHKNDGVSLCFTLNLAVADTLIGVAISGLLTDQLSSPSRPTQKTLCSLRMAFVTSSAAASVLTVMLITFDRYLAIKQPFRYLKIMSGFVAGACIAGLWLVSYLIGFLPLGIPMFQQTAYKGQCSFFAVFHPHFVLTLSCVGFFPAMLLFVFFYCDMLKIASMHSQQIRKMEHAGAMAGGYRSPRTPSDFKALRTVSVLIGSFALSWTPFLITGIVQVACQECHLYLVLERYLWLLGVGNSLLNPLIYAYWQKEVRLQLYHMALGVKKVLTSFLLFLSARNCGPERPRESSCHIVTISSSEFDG
MIN6 cells [Miyazaki J et al. Endocrinology. 1990 July; 127(1):126-32] were stably transfected with an expression vector for human GPR119 cDNA (Acc. No. NP_848566). Min-6/hGPR119 cells are cultured in DMEM, 10% FBS, 50 μM β-mercaptoethanol, 0.3 mg/mL Geniticin, 2 mM GlutaMAX at 37° C. 5% CO2. For the assay, the cells are placed in Optiplates (white, 384-well, 160W-barcoded, TC, sterile with lid, Cat. No. #6007688 (Perkin Elmer); 10000 cells/well; 50 μl). The plates covered with lids are then incubated for 24 hours at 37° C./5% CO2.
After the medium has been sucked out of the wells completely, 10 μl of the test compound are added, the compounds are diluted beforehand with stimulating buffer (140 mM NaCl, 3.6 mM KCl, 0.5 mM NaH2PO4, 0.5 mM MgSO4, 1.5 mM CaCl2, 10 mM Hepes, 5 mM NaHCO3; pH 7.4. 0.5 mM IBMX and 0.1% BSA, the final DMSO concentration is 1%). After 45 minutes' incubation at RT, the cAMP concentrations are determined using the AlphaScreen cAMP Assay Kit (Cat. No. #6760625R from PerkinElmer).
In general terms: In Alpha technology, singlet oxygen from a donor bead excites a nearby acceptor bead.
Take `O=C1CCC(c2ccc3nc(N4CCSCC4)oc3c2)=NN1` [Example 119, 6-(2-thiomorpholin-1-yl-benzoxazol-6-yl)-4,5-dihydro-2H-pyridazin-3-one]: the EC50 is 3460 nM.
To `CC[C@@H]1CC(=O)NN=C1c1ccc2nc(-c3ccc(OC)cc3)oc2c1` [Example 190, (5R)-5-ethyl-6-[2-(4-methoxyphenyl)-1,3-benzoxazol-6-yl]-2,3,4,5-tetrahydropyridazin-3-one] belongs 79 nM.
To `CCCC1CC(=O)NN=C1c1ccc2nc(-c3ccccc3)oc2c1` (stereo not drawn) [Example 8, 6-(2-phenyl-benzoxazol-6-yl)-5-propyl-4,5-dihydro-2H-pyridazin-3-one] belongs 874 nM; to `Cc1c(C2=NNC(=O)C3CC23)ccc2nc(-c3ccccc3)oc12` (stereo not drawn) [Example 6, 5-(7-methyl-2-phenyl-benzoxazol-6-yl)-3,4-diaza-bicyclo[4.1.0]hept-4-en-2-one], 1700 nM; to `CCC[C@H]1C(=O)NN=C(c2ccc3nc(-c4ccc(OC(C)C)cc4)oc3c2)[C@@H]1C` [Example 260, (4R,5R)-5-methyl-6-{2-[4-(propan-2-yloxy)phenyl]-1,3-benzoxazol-6-yl}-4-propyl-2,3,4,5-tetrahydropyridazin-3-one], 24 nM.
Then `CCC1CC(=O)NN=C1c1ccc2nc(-c3cccc(OC)c3)oc2c1` (stereo not drawn) [Example 102, 5-ethyl-6-[2-(3-methoxy-phenyl)-benzoxazol-6-yl]-4,5-dihydro-2H-pyridazin-3-one], with 316 nM; and `CCC1CC(=O)NN=C1c1ccc2nc(-c3ccc(OC[C@@H]4CCCN4C(C)C)cc3)oc2c1` (stereo partly drawn) [Example 240, 5-ethyl-6-{2-[4-(1-isopropyl-5-pyrrolidin-2-yl-methoxy)-phenyl]-benzoxazol-6-yl}-4,5-dihydro-2H-pyridazin-3-one], with 186 nM.
Regarding `Cc1ccc(-c2nc3ccc(C4=NNC(=O)C5CC45)cc3o2)cc1` (stereo not drawn) [Example 13, 5-(2-p-tolyl-benzoxazol-6-yl)-3,4-diaza-bicyclo[4.1.0]hept-4-en-2-one], the EC50 was determined as 153 nM.
`O=C1CCC(c2ccc3nc(-c4cccs4)oc3c2)=NN1` [Example 111, 6-(2-thiophen-2-yl-benzoxazol-6-yl)-4,5-dihydro-2H-pyridazin-3-one] yielded a concentration for a half-maximal effect (EC50) of 967 nM. Compared with the last molecule, the EC50 is about 6.3-fold higher.
Then `O=C1NN=C(c2ccc3nc(-c4ccc(CN5CCOCC5)cc4)oc3c2)C2CC12` (stereo not drawn) [Example 22, 5-[2-(4-morpholin-4-ylmethyl-phenyl)-benzoxazol-6-yl]-3,4-diaza-bicyclo[4.1.0]hept-4-en-2-one], with 1750 nM; and `CC1NC(=O)NN=C1c1ccc2nc(-c3ccccc3)oc2c1` (stereo not drawn) [Example 142, 5-methyl-6-(2-phenyl-benzoxazol-6-yl)-4,5-dihydro-2H-[1,2,4]triazin-3-one], with 539 nM; and `CCC1CC(=O)NN=C1c1ccc2nc(-c3ccc(OCCN(C)C)cc3)oc2c1` (stereo not drawn) [Example 55, 6-{2-[4-(2-dimethylamino-ethoxy)-phenyl]-benzoxazol-6-yl}-5-ethyl-4,5-dihydro-2H-pyridazin-3-one], with 486 nM.
Regarding `CCC1CC(=O)NN=C1c1ccc2nc(-c3ccc(OCCN4CCN(C(C)CC)CC4)cc3)oc2c1` (stereo not drawn) [Example 166, 6-(2-{4-[2-(4-sec-butyl-piperazin-1-yl)-ethoxy]-phenyl}-benzoxazol-6-yl)-5-ethyl-4,5-dihydro-2H-pyridazin-3-one], a half-maximal effect (EC50) was put at 621 nM.
`CCC[C@@H]1C(=O)NN=C(c2ccc3nc(-c4ccc(OC)cc4)oc3c2)[C@H]1C` (relative stereo) [Example 174, trans-6-[2-(4-methoxy-phenyl)-benzoxazol-6-yl]-5-methyl-4-propyl-4,5-dihydro-2H-pyridazin-3-one] gave an EC50 of 92 nM.
In turn, `CC[C@H]1OC(=O)NN=C1N1CCc2nc(-c3ccccc3)oc2C1` [Example 206, (R)-6-ethyl-5-(2-phenyl-6,7-dihydro-4H-oxazolo[5,4-c]pyridin-5-yl)-3,6-dihydro-[1.3.4]oxadiazin-2-one] registered an EC50 of 27 nM.
To `CC1(C)CC(c2ccc3nc(-c4ccccc4)oc3c2)=NNC1=O` [Example 21, 4.4-dimethyl-6-(2-phenyl-benzoxazol-6-yl)-4,5-dihydro-2H-pyridazin-3-one] belongs greater than 10000 nM; to `CO[C@H]1CC(=O)NN=C1c1ccc2nc(-c3ccccc3)oc2c1` [Example 28, (5S)-5-methoxy-6-(2-phenyl-1,3-benzoxazol-6-yl)-2,3,4,5-tetrahydropyridazin-3-one], 213 nM; to `CCC1CC(=O)NN=C1c1ccc2nc(-c3ccc(OCCN4CCC(C#N)CC4)cc3)oc2c1` (stereo not drawn) [Example 163, 1-(2-{4-[6-(4-ethyl-6-oxo-1,4,5,6-tetrahydro-pyridazin-3-yl)-benzoxazol-2-yl]-phenoxy}-ethyl)-piperidin-4-carbonitrile], 97 nM.
Turning to `O=c1ccc(-c2ccc3nc(-c4cccs4)oc3c2)n[nH]1` [Example 257, 6-(2-thiophen-2-yl-benzoxazol-6-yl)-2H-pyridazin-3-one], the EC50 turned out to be 456 nM. Against the preceding molecule, the EC50 is about 4.7-fold higher.
Turning to `CCC1OC(=O)NN=C1c1ccc2nc(-c3ccccc3)oc2c1` (stereo in doubt) [Example 79, (S)-6-ethyl-5-(2-phenyl-benzoxazol-6-yl)-3,6-dihydro-[1,3,4]oxadiazin-2-one], the EC50 came out at 41 nM.
`CCC1CC(=O)NN=C1c1ccc2nc(-c3ccc(OCC4CCCCN4C)cc3)oc2c1` (stereo not drawn) [Example 233, 5-ethyl-6-{2-[4-(1-methyl-2-piperidin-2-yl-methoxy)-phenyl]-benzoxazol-6-yl}-4,5-dihydro-2H-pyridazin-3-one]: it took 848 nM to reach a half-maximal effect (EC50).
Then `CCC1CC(=O)NN=C1c1ccc2nc(-c3cccc(OCc4ccccn4)c3)oc2c1` (stereo not drawn) [Example 65, 5-ethyl-6-{2-[3-(pyridin-2-ylmethoxy)-phenyl]-benzoxazol-6-yl}-4,5-dihydro-2H-pyridazin-3-one], with 426 nM.
For `CCC1CC(=O)NN=C1c1ccc2nc(-c3ccc(OCCN4CCN(C(C)=O)CC4)cc3)oc2c1` (stereo not drawn) [Example 162, 6-(2-{4-[2-(4-acetyl-piperazin-1-yl)-ethoxy]-phenyl}-benzoxazol-6-yl)-5-ethyl-4,5-dihydro-2H-pyridazin-3-one], the 50% effective concentration (EC50) is 9120 nM. Against the preceding molecule, the EC50 is about 21-fold higher.
`CCC1CC(=O)NN=C1c1ccc2nc(-c3ccc(OCCN(C(C)C)C(C)C)cc3)oc2c1` (stereo not drawn) [Example 57, 6-{2-[4-(2-diisopropylamino-ethoxy)-phenyl]-benzoxazol-6-yl}-5-ethyl-4,5-dihydro-2H-pyridazin-3-one]: the EC50 turned out to be 37 nM.
Consider `CC1CC(=O)NN=C1c1ccc2nc(-c3cccc(OCC4CCN(C(=O)OC(C)(C)C)CC4)c3)oc2c1` (stereo not drawn) [Example 69, tert-butyl 4-{3-[6-(4-methyl-6-oxo-1,4,5,6-tetrahydro-pyridazin-3-yl)-benzoxazol-2-yl]-phenoxymethyl}-piperidin-1-carboxylate], for which the midpoint of the response, the EC50, lay at 143 nM.
`CCC1CC(=O)NN=C1c1ccc2nc(-c3ccc(OC[C@H]4CCCN4)cc3)oc2c1` (stereo partly drawn) [Example 239, 5-ethyl-6-(2-{4-[(2R)-pyrrolidin-2-ylmethoxy]phenyl}-1,3-benzoxazol-6-yl)-2,3,4,5-tetrahydropyridazin-3-one] gave an EC50 of 1650 nM. This EC50 lies about 12-fold higher than the previous one.
`CC1CC(=O)NN=C1c1ccc2nc(-c3cccc(Cl)c3)oc2c1` (stereo not drawn) [Example 88, 6-[2-(3-chloro-phenyl)-benzoxazol-6-yl]-5-methyl-4,5-dihydro-2H-pyridazin-3-one] showed an EC50 of 260 nM.
Regarding `CCC1CC(=O)NN=C1c1ccc2nc(-c3cccc(OCCN4CC(C)OC(C)C4)c3)oc2c1` (stereo not drawn) [Example 216, 6-(2-{3-[2-(2,6-dimethyl-morpholin-4-yl)-ethoxy]-phenyl}-benzoxazol-6-yl)-5-ethyl-4,5-dihydro-2H-pyridazin-3-one], the EC50 was determined as 639 nM. This EC50 is about 2.5-fold higher than that of the molecule before.
To `CCC[C@H]1C(=O)NN=C(c2ccc3nc(-c4cccn4C)oc3c2)[C@@H]1C` (relative stereo) [Example 252, Trans-5-methyl-6-[2-(1-methyl-1H-pyrrol-2-yl)-benzoxazol-6-yl]-4-propyl-4,5-dihydro-2H-pyridazin-3-one] belongs 110 nM; to `CC1CC(=O)NN=C1c1ccc2nc(-c3cccc(O)c3)oc2c1` (stereo not drawn) [Example 38, 6-[2-(3-hydroxy-phenyl)-benzoxazol-6-yl]-5-methyl-4,5-dihydro-2H-pyridazin-3-one], 890 nM.
Then `CCC1CC(=O)NN=C1c1ccc2nc(-c3ccc(OC[C@H]4CCCN4C(=O)OC(C)(C)C)cc3)oc2c1` (stereo partly drawn) [Example 227], with 52 nM; and `CC1CC(=O)NN=C1c1ccc2nc(-c3cccc(OCC4CCNCC4)c3)oc2c1` (stereo not drawn) [Example 73, 5-methyl-6-{2-[3-(piperidin-4-ylmethoxy)-phenyl]-benzoxazol-6-yl}-4,5-dihydro-2H-pyridazin-3-one hydrochloride], with 6770 nM.
`CCC1CC(=O)NN=C1c1ccc2nc(-c3cccc(OCCN4CCCCC4)c3)oc2c1` (stereo not drawn) [Example 148, 5-ethyl-6-{2-[3-(2-piperidin-1-yl-ethoxy)-phenyl]-benzoxazol-6-yl}-4,5-dihydro-2H-pyridazin-3-one] showed an EC50 of 1560 nM.

The values above are taken from US8772323B2, “Benzoxazole- and tetrahydrobenzoxazole-substituted pyridazinones as GPR119 agonists” (Boehringer Ingelheim International GmbH, priority 2010, dated 2014).
